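Five concentrations, 48 hours, 96-well plates. GI50 = concentration required for 50% inhibition of growth.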 The source made the active and inactive calls. Cut-off read from the data, not from the text of the source: active = GI50 up to about 1.1 µM and inactive = higher. Peptide text beside a SMILES is read from it. * marks the point of attachment. Boc = CC(C)(C)OC(=O)*
Key:
Assay in all cases: DTP human tumour cell line panel, 48 h
786-0 = test system: 786-0
NCI/ADR-RES = test system: NCI/ADR-RES
DU-145 = test system: DU-145
OVCAR-3 = test system: OVCAR-3
HCT-15 = test system: HCT-15
NCI-H226 = test system: NCI-H226
U-251 = test system: U-251
OVCAR-8 = test system: OVCAR-8
T47D = test system: T47D
SNB-19 = test system: SNB-19
Hs-578T = test system: Hs-578T
HOP-62 = test system: HOP-62
CCRF-CEM = test system: CCRF-CEM
NCI-H23 = test system: NCI-H23
SK-MEL-28 = test system: SK-MEL-28
SF-295 = test system: SF-295
PC-3 = test system: PC-3
SK-OV-3 = test system: SK-OV-3

Row | SMILES | GI50 (786-0) | GI50 (NCI/ADR-RES) | GI50 (DU-145) | GI50 (OVCAR-3) | GI50 (HCT-15) [µM] | GI50 (NCI-H226) | GI50 (U-251) | GI50 (OVCAR-8) | GI50 (T47D) | GI50 (SNB-19) | GI50 (Hs-578T) | GI50 (HOP-62) | GI50 (CCRF-CEM) | GI50 (NCI-H23) | GI50 (SK-MEL-28) | GI50 (SF-295) | GI50 (PC-3) | GI50 (SK-OV-3)
1 | O=C1Cc2cn[nH]c2-c2ccccc2N1 | 41.8 µM (inactive) | 38.4 µM (inactive) | 40.7 µM (inactive) | 16.1 µM (inactive) | 23.8 | > 75.9 µM (inactive) | 23.6 µM (inactive) | 35 µM (inactive) | 36 µM (inactive) | > 68.2 µM (inactive) | 37.9 µM (inactive) | 32.1 µM (inactive) | 20.7 µM (inactive) | 29.9 µM (inactive) | 63.1 µM (inactive) | 61 µM (inactive) | 41.2 µM (inactive) | > 85.7 µM (inactive)
2 | CN(C)CCOc1ccc2[nH]c(C(=O)N3CC(CCl)c4c3cc(NC(=O)OCc3ccc([N+](=O)[O-])cc3)c3ccccc43)cc2c1 (stereo not drawn) | 0.979 µM (active) | 1.34 µM (inactive) | 0.552 µM (active) | 1.63 µM (inactive) | 1.55 | 1.67 µM (inactive) | 1.36 µM (inactive) | 0.483 µM (active) | 1.55 µM (inactive) | 1.71 µM (inactive) | 2.3 µM (inactive) | 1.47 µM (inactive) | 0.162 µM (active) | 1.36 µM (inactive) | 1.64 µM (inactive) | 1.6 µM (inactive) | 1.46 µM (inactive) | 1.66 µM (inactive)
3 | O=C(c1cccs1)N(C(=O)N1CCN(c2ccccc2)CC1)S(=O)(=O)c1ccccc1 | 23.2 µM (inactive) | 24 µM (inactive) | 16.5 µM (inactive) | 32.2 µM (inactive) | 28.5 | 19.8 µM (inactive) | 17.5 µM (inactive) | 18.6 µM (inactive) | 12.7 µM (inactive) | 27 µM (inactive) | 23.8 µM (inactive) | 29.6 µM (inactive) | 20.8 µM (inactive) | 24 µM (inactive) | 22.4 µM (inactive) | 28.1 µM (inactive) | 29 µM (inactive) | 46.6 µM (inactive)
4 | CC(NC(=O)OC(C)(C)C)C(=O)NC(Cc1ccccc1)C(=O)NCC(=O)O (stereo not drawn) (Boc-Ala-Phe-Gly-OH; configuration not given here) | > 100 µM (inactive) | > 100 µM (inactive) | > 100 µM (inactive) | > 100 µM (inactive) | > 100 | > 100 µM (inactive) | > 100 µM (inactive) | > 100 µM (inactive) | > 100 µM (inactive) | > 100 µM (inactive) | > 100 µM (inactive) | > 100 µM (inactive) | > 100 µM (inactive) | > 100 µM (inactive) | > 100 µM (inactive) | > 100 µM (inactive) | > 100 µM (inactive) | > 100 µM (inactive)
5 | NC(=O)C(=CNC(=S)Nc1ccc(Cl)c(Cl)c1)C(N)=O | > 71.1 µM (inactive) | 85.1 µM (inactive) | > 100 µM (inactive) | > 100 µM (inactive) | 45.1 | 0.374 µM (active) | > 56 µM (inactive) | > 88.3 µM (inactive) | 12.2 µM (inactive) | > 94.8 µM (inactive) | 30.3 µM (inactive) | > 100 µM (inactive) | > 80.4 µM (inactive) | > 92.3 µM (inactive) | > 100 µM (inactive) | > 85.7 µM (inactive) | > 66.4 µM (inactive) | > 78.7 µM (inactive)
6 | Cc1cccc2c1C(=O)[C@](C)([C@]1(C)Nc3cccc(C)c3C1=O)N2 | 39.4 µM (inactive) | 27.7 µM (inactive) | 54.1 µM (inactive) | 29.7 µM (inactive) | 18.2 | 33 µM (inactive) | 60.3 µM (inactive) | 24 µM (inactive) | 28.8 µM (inactive) | 27.3 µM (inactive) | 21.7 µM (inactive) | 23.3 µM (inactive) | 17.6 µM (inactive) | 25.6 µM (inactive) | 37.6 µM (inactive) | 20.8 µM (inactive) | 14.4 µM (inactive) | 21.7 µM (inactive)
7 | CC(=O)Nc1ccc2c3c(cc(O)c2c1)N(C(=O)CCCCC(=O)Nc1ccc2c4c(cc(O)c2c1)N(C(=O)OC(C)(C)C)CC4CCl)CC3CCl (stereo not drawn) | 2.76 µM (inactive) | 21.7 µM (inactive) | 0.826 µM (active) | 2.26 µM (inactive) | 16.7 | 2.13 µM (inactive) | 1.53 µM (inactive) | 3.08 µM (inactive) | 0.82 µM (active) | 2.09 µM (inactive) | 3.55 µM (inactive) | 3.05 µM (inactive) | 0.193 µM (active) | 1.05 µM (active) | 3.3 µM (inactive) | 4.66 µM (inactive) | 3.25 µM (inactive) | 4.4 µM (inactive)
8 | Nc1cc(CO)cc(Nc2c3ccccc3nc3occc23)c1 | 29.9 µM (inactive) | 22.4 µM (inactive) | 43.3 µM (inactive) | 72.4 µM (inactive) | 25.6 | 29.1 µM (inactive) | 45.9 µM (inactive) | 35.7 µM (inactive) | 29.6 µM (inactive) | > 100 µM (inactive) | 31 µM (inactive) | 37.2 µM (inactive) | 48.1 µM (inactive) | 28.9 µM (inactive) | 36.4 µM (inactive) | 37.7 µM (inactive) | 64 µM (inactive) | 36.5 µM (inactive)
9 | O=[N+]([O-])c1ccccc1S(=O)(=O)c1cc(O)cc2c1NCCC2 | 12.1 µM (inactive) | 21.4 µM (inactive) | 20.7 µM (inactive) | 7.55 µM (inactive) | 19.6 | 28.1 µM (inactive) | 20.2 µM (inactive) | 11.8 µM (inactive) | 6.35 µM (inactive) | 28.5 µM (inactive) | 27.4 µM (inactive) | 21 µM (inactive) | 2.15 µM (inactive) | 19.9 µM (inactive) | 18.7 µM (inactive) | 25.3 µM (inactive) | 14.7 µM (inactive) | 17.9 µM (inactive)
10 | CC(C)=CCC/C(C)=C/CC/C(C)=C/[C@@H]1[C@@H](CO)[C@]1(C)CC/C=C(\C)CCC=C(C)C | 18.4 µM (inactive) | 22.4 µM (inactive) | 39.6 µM (inactive) | 52.5 µM (inactive) | 30.3 | 19.4 µM (inactive) | 53.7 µM (inactive) | 17.1 µM (inactive) | 41.3 µM (inactive) | > 100 µM (inactive) | > 100 µM (inactive) | 69.7 µM (inactive) | 0.251 µM (active) | 32 µM (inactive) | > 100 µM (inactive) | 60.8 µM (inactive) | 23.9 µM (inactive) | > 100 µM (inactive)
11 | CC(C)(C)OC(=O)NCCC1SC2C=CC1C2 (stereo not drawn) | > 100 µM (inactive) | > 100 µM (inactive) | > 100 µM (inactive) | > 100 µM (inactive) | > 100 | > 100 µM (inactive) | > 100 µM (inactive) | > 100 µM (inactive) | 99.3 µM (inactive) | > 100 µM (inactive) | > 100 µM (inactive) | > 100 µM (inactive) | > 100 µM (inactive) | > 100 µM (inactive) | > 100 µM (inactive) | > 100 µM (inactive) | > 100 µM (inactive) | > 100 µM (inactive)

Source: ChEMBL document CHEMBL1201862, “PubChem BioAssay data set” (2004)
